From ChEMBL document CHEMBL1201862, “PubChem BioAssay data set” (2004)
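1) Cells in 96-well plates. 2) Compound, 48 h, 5 concentrations. 3) Linear interpolation between surrounding doses. 4) Unreached endpoint = highest concentration. GI50 marks 50% less growth.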 Calls of active or inactive are those of the source. Cut-off read from the data, not from the text of the source: active = GI50 up to about 1.1 µM and inactive = higher.

How the values were obtained:
Assay in all cases: growth of human tumour cells (NCI), 48 h
[1] = system: XF498
[2] = system: SNB-78
[3] = system: KM-20L2
[4] = system: LXFL 529
[5] = system: DMS-273
[6] = system: DLD-1
[7] = system: M19-MEL
[8] = system: T47D
[9] = system: RXF 631

| SMILES | GI50 [2] | GI50 [3] | GI50 [4] | GI50 [5] | GI50 [6] | GI50 [7] | GI50 [8] | further results |
| --- | --- | --- | --- | --- | --- | --- | --- | --- |
| c1ccc(CCCC2Sc3cccc4cccc(c34)S2)cc1 | > 100 µM (inactive) | 54.7 µM (inactive) | > 100 µM (inactive) | > 100 µM (inactive) | > 100 µM (inactive) | 79.1 µM (inactive) |  | GI50 [1]: > 100 µM (inactive) |
| c1ccc(-c2sc(-c3ccccc3)c3c2C(c2ccccc2)c2c(-c4ccccc4)sc(-c4ccccc4)c2C3c2ccccc2)cc1 (stereo not drawn) | > 100 µM (inactive) | > 100 µM (inactive) | > 100 µM (inactive) | > 100 µM (inactive) | > 100 µM (inactive) | > 100 µM (inactive) |  |  |
| Cc1ccc(S(=O)(=O)NC(=O)NC(C(=O)O)C(C)O)cc1 (stereo not drawn) |  |  |  |  |  |  | > 100 µM (inactive) |  |
| O=C(CSc1nnc(-c2ccc(/N=C\c3ccc(Cl)cc3)cc2)o1)Nc1ccccc1Cl | 60.8 µM (inactive) | > 100 µM (inactive) | > 100 µM (inactive) | > 100 µM (inactive) |  | > 100 µM (inactive) |  | GI50 [1]: > 100 µM (inactive) |
| Cc1cccc(/C=N\NC(=S)N2CCCCC2)n1 |  |  |  |  |  |  | < 0.01 µM (active) |  |
| O=c1cc(-c2ccncc2)[nH]c2cc3c(cc12)OCO3 |  |  |  |  |  |  | > 100 µM (inactive) |  |
| COP(=O)(OC)c1ccc(NCc2cc(O)ccc2O)cc1 |  |  |  |  |  |  | 28.8 µM (inactive) |  |
| COc1ccc2c(CN3CCCCC3CO)cc3cc(OC)c(OC)cc3c2c1 (stereo not drawn) | 6.93 µM (inactive) | 3.64 µM (inactive) | 4.9 µM (inactive) | 2.65 µM (inactive) | 6.18 µM (inactive) | 3.3 µM (inactive) |  | GI50 [1]: 5.36 µM (inactive) |
| Nc1ccc(-c2nnc(-c3c(Cl)c(Cl)c(Cl)c(Cl)c3-c3nc4cc(C(=O)c5ccccc5)ccc4[nH]3)o2)cc1 |  |  |  |  |  |  | 18.3 µM (inactive) |  |
| Cn1c(-c2ccc[se]2)ccc1-c1ccc(CO)[se]1 |  |  |  |  |  |  | 0.0405 µM (active) |  |
| O=C(/C=C/c1ccccc1)CSc1nc2ccc(I)cc2c(=O)n1Cc1ccccc1 |  |  |  |  |  |  | 9.16 µM (inactive) |  |
| Cc1ccc(/C=C/c2n[nH]c(N/N=C/c3ccc4c(c3)OCO4)nc2=O)cc1 |  |  |  |  |  |  | 36.6 µM (inactive) |  |
| CCOC(=O)C1(c2ccccc2)CCC(=O)CC1 | > 100 µM (inactive) | > 100 µM (inactive) | > 100 µM (inactive) | > 100 µM (inactive) | > 100 µM (inactive) | > 100 µM (inactive) |  | GI50 [9]: > 100 µM (inactive) |
| O=c1nc(NC(c2ccccc2)(c2ccccc2)c2ccccc2)ccn1CCO | > 100 µM (inactive) | > 100 µM (inactive) | 63.4 µM (inactive) |  | 39.6 µM (inactive) |  |  |  |
| CC(C)(C)N1NC1C1NN1C(C)(C)C (stereo not drawn) |  |  |  |  |  |  | > 100 µM (inactive) |  |
| CC(C)C(N)=O [ISOBUTYRAMIDE] | > 5000 µM (inactive) |  | > 5000 µM (inactive) | > 5000 µM (inactive) | > 5000 µM (inactive) | > 5000 µM (inactive) |  |  |
| O=C(Nc1ccc2cc3ccccc3cc2c1)c1cc2c(cc1Cl)Sc1nccn1S2(=O)=O |  |  |  |  |  |  | 25.2 µM (inactive) |  |
| C#C[C@]1(O)CC[C@H]2[C@@H]3CCC4=C/C(=N/NC(=O)c5cccc6c(=O)c7ccccc7[nH]c56)CCC4[C@H]3CC[C@@]21C (stereo partly drawn) |  |  |  |  |  |  | 30.8 µM (inactive) |  |
| O=c1c2cc(Br)cc(Br)c2[nH]c(=S)n1-c1ccc(/N=N/c2ccc(O)c3cccnc23)cc1 |  |  |  |  |  |  | 38.2 µM (inactive) |  |
| CCCC(=O)C1=C(O)C(Cc2c(O)c(C)c(O)c(C(=O)CCC)c2O)=C(O)C(C)(C)C1=O |  |  |  |  |  |  | 49.2 µM (inactive) |  |
| O=[N+]([O-])c1cc(C(F)(F)F)ccc1S(=O)(=O)N[C@@H]1CCCC[C@H]1NS(=O)(=O)c1ccc(C(F)(F)F)cc1[N+](=O)[O-] |  |  |  |  |  |  | 3.13 µM (inactive) |  |
| CN(C(=N)c1ccccc1)c1ccccc1 | > 100 µM (inactive) | > 100 µM (inactive) | > 100 µM (inactive) | > 100 µM (inactive) | > 100 µM (inactive) | > 100 µM (inactive) |  |  |
| Cc1ccc2nc(N)[nH]c(=O)c2c1Sc1ccncc1 | > 100 µM (inactive) | 10 µM (inactive) | > 59.7 µM (inactive) | 37.2 µM (inactive) | > 100 µM (inactive) | > 76 µM (inactive) |  | GI50 [1]: 22.8 µM (inactive) |
| Nc1ccc2ncc(Nc3ccc(Cl)c(Cl)c3)nc2c1 | 26.9 µM (inactive) | 31.8 µM (inactive) | 29.6 µM (inactive) | 23.2 µM (inactive) | 29.6 µM (inactive) | 21.7 µM (inactive) |  | GI50 [1]: 32.2 µM (inactive) |
| COc1ccc(C(O)/C(=N/N)c2nc3ccc(Cl)cc3nc2O)cc1 (stereo not drawn) |  |  |  |  |  |  | 99.8 µM (inactive) |  |
| CC(=O)c1c(O)ccc2c1CC(CC=O)O2 (stereo not drawn) | 64.6 µM (inactive) | > 100 µM (inactive) | 42.9 µM (inactive) |  | 32.7 µM (inactive) | 40.1 µM (inactive) |  | GI50 [1]: > 100 µM (inactive); GI50 [9]: 65 µM (inactive) |
| COc1ccc(C2C(C#N)=C(S)N(C3OC(CO)C(O)C(O)C3O)C(c3ccccc3)=C2C(C)=O)cc1 (stereo not drawn) |  |  |  |  |  |  | 6.18 µM (inactive) |  |
| COc1cc(C=O)cc(/C=N/c2ccccn2)c1O |  |  |  |  |  |  | 53.3 µM (inactive) |  |
| COc1ccccc1C1(c2c(OC)c(=O)c2=O)SCCCS1 |  |  |  |  |  |  | 73.8 µM (inactive) |  |
| O=C(O)c1ccc(Cc2ccccc2C(=O)O)cc1 |  |  |  |  |  |  | > 100 µM (inactive) |  |
